# Reference: ChEMBL document CHEMBL1777789, “The square conformation of phenylglycine-incorporated ascidiacyclamide is stabilized by CH/π interactions between amino acid side chains” (2011)
# Legend:
# HL-60 = experiment: Cytotoxicity against human HL60 cells after 72 hrs by MTT assay; format: functional; details: HL-60, 72 h, read-out: ED50
# P388 = experiment: Cytotoxicity against mouse P388 cells after 72 hrs by MTT assay; format: functional; details: P388, 72 h, read-out: ED50
SMILES,EC50 (HL-60) [µg/mL],EC50 (P388) [µg/mL]
CC[C@H](C)[C@@H]1NC(=O)c2csc(n2)[C@@H](C(C)C)NC(=O)[C@H]2N=C(O[C@@H]2C)[C@H](c2ccccc2)NC(=O)c2csc(n2)[C@@H](C(C)C)NC(=O)[C@H]2N=C1O[C@@H]2C,12.8,12.4
CC[C@H](C)[C@@H]1NC(=O)c2csc(n2)[C@@H](C(C)C)NC(=O)[C@H]2N=C(O[C@@H]2C)[C@H]([C@@H](C)CC)NC(=O)c2csc(n2)[C@@H](C(C)C)NC(=O)[C@H]2N=C1O[C@@H]2C [ASCIDIACYCLAMIDE],33.5,10.5
